Source: US11945806B2, “Stabilization of amyloidogenic immunoglobulin light chains” (The Scripps Research Institute, priority 2019, dated 2024)

target: WIL-FL (Homo sapiens, UniProt P01721); experiment: Unlabeled LC Protease Sensitivity Assay (proteinase K); assay type: biochemical; conditions: small molecule 10 μM, WIL-FL 5 μM, proteinase K 50 nM, 2 hours at 37° C.
In short: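 WIL-FL light chain (5 μM) in PBS pH 7.4 + 0.02% Pluronic F-127 digested with proteinase K (50 nM) for 2 h at 37 °C with 10 μM compound (1% DMSO). Intact WIL-FL quantified by size-exclusion UPLC (A280). Fold protection = (A_compound−A_vehicle)/(A_no_protease−A_vehicle) from peak areas.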

Protection (fold protection of LC from protease) | SMILES
B (3 ≤ B < 0.6) | CCN(CC)c1ccc2c(C)c(CCNC(=O)NCc3ccncc3)c(=O)oc2c1 [Compound 277, 1-(2-(7-(diethylamino)-4-methyl-2-oxo-2H-chromen-3-yl)ethyl)-3-(pyridin-4-ylmethyl)urea]
C (C ≥ 0.6) | CCN(CC)c1ccc2c(C)c(CCOC(=O)NCc3ccc(F)c(C(N)=O)c3)c(=O)oc2c1 [Compound 144, 2-(7-(diethylamino)-4-methyl-2-oxo-2H-chromen-3-yl)ethyl (3-carbamoyl-4-fluorobenzyl)carbamate]
A (A < 0.3)) | Cc1cc(=O)oc2cc(C(=O)NCc3ccncc3)ccc12 [Compound 228, 4-methyl-2-oxo-N-(pyridin-4-ylmethyl)-2H-chromene-7-carboxamide]
A (A < 0.3)) | C=CCCN(C)c1ccc2c(C)cc(=O)oc2c1 [Compound 256, 7-(but-3-en-1-yl(methyl)amino)-4-methyl-2H-chromen-2-one]
A (A < 0.3)) | Cc1cc(=O)oc2cc(OC(C)c3ccccn3)ccc12 (stereo not shown) [Compound 174, 4-methyl-7-(1-(pyridin-2-yl)ethoxy)-2H-chromen-2-one]
A (A < 0.3)) | CCN(CC)c1ccc2c(C)c(CCNC(=O)NCc3cc(F)cc(C(=O)O)c3)c(=O)oc2c1 [Compound 297, 3-((3-(2-(7-(diethylamino)-4-methyl-2-oxo-2H-chromen-3-yl)ethyl)ureido)methyl)-5-fluorobenzoic acid]
A (A < 0.3)) | CCN(C)c1ccc2c(C)cc(=O)oc2c1 [Compound 268, 7-(ethyl(methyl)amino)-4-methyl-2H-chromen-2-one]
A (A < 0.3)) | Cc1cc(=O)oc2cc(N(C)CCCF)ccc12 [Compound 258, 7-((3-fluoropropyl)(methyl)amino)-4-methyl-2H-chromen-2-one]
A (A < 0.3)) | CCN(CC#N)c1ccc2c(C)cc(=O)oc2c1 [Compound 272, 2-(ethyl(4-methyl-2-oxo-2H-chromen-7-yl)amino)acetonitrile]
A (A < 0.3)) | C#CCN(CCC)c1ccc2c(C)cc(=O)oc2c1 [Compound 260, 4-methyl-7-(prop-2-yn-1-yl(propyl)amino)-2H-chromen-2-one]
B (3 ≤ B < 0.6) | CCN(CC)c1ccc2c(C)c(CCOC(=O)NCc3ccc4[nH]ccc4c3)c(=O)oc2c1 [Compound 137, 2-(7-(diethylamino)-4-methyl-2-oxo-2H-chromen-3-yl)ethyl ((1H-indol-5-yl)methyl)carbamate]
A (A < 0.3)) | Cc1cc(=O)oc2cc(OC(C)Cc3ccccc3)ccc12 (stereo not shown) [Compound 47, 4-methyl-7-((1-phenylpropan-2-yl)oxy)-2H-chromen-2-one]
B (3 ≤ B < 0.6) | CCN(CC)c1ccc2c(C)c(CCOC(=O)N3CC4(C3)CS(=O)(=O)C4)c(=O)oc2c1 [Compound 110, 2-(7-(diethylamino)-4-methyl-2-oxo-2H-chromen-3-yl)ethyl 2-thia-6-azaspiro[3.3]heptane-6-carboxylate 2,2-dioxide]
A (A < 0.3)) | CCN(CC)c1ccc2c(C)c(CCNC(C)=O)c(=O)oc2c1 [Compound 94, N-(2-(7-(diethylamino)-4-methyl-2-oxo-2H-chromen-3-yl)ethyl)acetamide]
A (A < 0.3)) | Cc1cc(=O)oc2cc(OCCN)ccc12 [Compound 34, 7-(2-aminoethoxy)-4-methyl-2H-chromen-2-one]
A (A < 0.3)) | Cc1ccccc1C(C)Oc1ccc2c(C)cc(=O)oc2c1 (stereo not shown) [Compound 45, 4-methyl-7-(1-(o-tolyl)ethoxy)-2H-chromen-2-one]
A (A < 0.3)) | Cc1cc(=O)oc2cc(C(=O)NCc3ccc4[nH]ccc4c3)ccc12 [Compound 237, N-((1H-indol-5-yl)methyl)-4-methyl-2-oxo-2H-chromene-7-carboxamide]

Protection (fold protection of LC from protease) | SMILES
A (A < 0.3)) | Cc1cc(=O)oc2cc(C(=O)O)ccc12 [Compound 225, 4-methyl-2-oxo-2H-chromene-7-carboxylic acid]
A (A < 0.3)) | O=C(CN1C(=O)CNC1=O)Nc1ccc(C(F)(F)F)cc1 [Compound 151, 2-(2,5-dioxoimidazolidin-1-yl)-N-(4-(trifluoromethyl)phenyl)acetamide]
A (A < 0.3)) | C#CCNC(=O)c1ccc2c(C)cc(=O)oc2c1 [Compound 267, 4-methyl-2-oxo-N-(prop-2-yn-1-yl)-2H-chromene-7-carboxamide]
C (C ≥ 0.6) | CCN(CC)c1ccc2c(C)c(CCN3C(=O)NC4(CCN(S(=O)(=O)c5cccnc5)C4)C3=O)c(=O)oc2c1 (stereo not shown) [Compound 202, 3-(2-(7-(diethylamino)-4-methyl-2-oxo-2H-chromen-3-yl)ethyl)-7-(pyridin-3-ylsulfonyl)-1,3,7-triazaspiro[4.4]nonane-2,4-dione]
A (A < 0.3)) | CCN(CC)c1ccc2c(C)c(CCO)c(=O)oc2c1 [Compound 53, 7-(diethylamino)-3-(2-hydroxyethyl)-4-methyl-2H-chromen-2-one]
A (A < 0.3)) | Cc1cc(=O)oc2cc(C(=O)NCc3ccc(O)cc3)ccc12 [Compound 230, N-(4-hydroxybenzyl)-4-methyl-2-oxo-2H-chromene-7-carboxamide]
C (C ≥ 0.6) | CCN(CC)c1ccc2c(C)c(CCOC(=O)NCc3cc(F)cc(C(N)=O)c3)c(=O)oc2c1 [Compound 145, 2-(7-(diethylamino)-4-methyl-2-oxo-2H-chromen-3-yl)ethyl (3-carbamoyl-5-fluorobenzyl)carbamate]
A (A < 0.3)) | CCN(CC)c1ccc2c(C)c(CCOC(=O)N(C)CCc3cccnc3)c(=O)oc2c1 [Compound 102, 2-(7-(diethylamino)-4-methyl-2-oxo-2H-chromen-3-yl)ethyl methyl(2-(pyridin-3-yl)ethyl)carbamate]
A (A < 0.3)) | Cc1cc(=O)oc2cc(NCCC(F)(F)F)ccc12 [Compound 265, 4-methyl-7-((3,3,3-trifluoropropyl)amino)-2H-chromen-2-one]
B (3 ≤ B < 0.6) | CCN(CC)c1ccc2c(C)c(CCOC(=O)NCc3ncccn3)c(=O)oc2c1 [Compound 93, 2-(7-(diethylamino)-4-methyl-2-oxo-2H-chromen-3-yl)ethyl (pyrimidin-2-ylmethyl)carbamate]
A (A < 0.3)) | CCN(CC)c1ccc2c(C)c(CCC(=O)NCCCN(C)C)c(=O)oc2c1 [Compound 68]
A (A < 0.3)) | CCN(CC)c1ccc2c(CCCOC(=O)NCc3cccc(S(N)(=O)=O)c3)cc(=O)oc2c1 [Compound 303, 3-(7-(diethylamino)-2-oxo-2H-chromen-4-yl)propyl (3-sulfamoylbenzyl)carbamate]
B (3 ≤ B < 0.6) | CCN(CC)c1ccc2c(C)c(CCOC(=O)NCc3cncc(NC(C)=O)c3)c(=O)oc2c1 [Compound 128, 2-(7-(diethylamino)-4-methyl-2-oxo-2H-chromen-3-yl)ethyl ((5-acetamidopyridin-3-yl)methyl)carbamate]
A (A < 0.3)) | CCN(CC)c1ccc2c(C)c(CC(=O)NCCCc3ccccc3)c(=O)oc2c1 [Compound 56, 2-(7-(diethylamino)-4-methyl-2-oxo-2H-chromen-3-yl)-N-(3-phenylpropyl)acetamide]
A (A < 0.3)) | CCN(CC)c1ccc2c(C)c(CCN3C(=O)NC4(CCN(c5ccc(C(F)(F)F)cn5)C4)C3=O)c(=O)oc2c1 (stereo not shown) [Compound 196, 3-(2-(7-(diethylamino)-4-methyl-2-oxo-2H-chromen-3-yl)ethyl)-7-(5-(trifluoromethyl)pyridin-2-yl)-1,3,7-triazaspiro[4.4]nonane-2,4-dione]
A (A < 0.3)) | Cc1cc(=O)oc2cc(OC(C)c3ccc(F)cc3)ccc12 (stereo not shown) [Compound 44, 7-(1-(4-fluorophenyl)ethoxy)-4-methyl-2H-chromen-2-one]
A (A < 0.3)) | Cc1cc(=O)oc2cc(OC(C)c3ccncc3)ccc12 (stereo not shown) [Compound 172, 4-methyl-7-(1-(pyridin-4-yl)ethoxy)-2H-chromen-2-one]

target: T1, WIL-FL* (Homo sapiens, UniProt P01721, K101C, form not given); experiment: PCFP assay with thermolysin; conditions: mean ± sd, n=3; 6.75 μM compound

Thermolysin activity (%) | SMILES
45.1 ± 6.6 | CC(C=NNc1ccc(S(N)(=O)=O)cc1[N+](=O)[O-])c1ccccc1 (stereo not shown) [Compound 6]

target: T1, WIL-FL*; experiment: Protease-coupled fluorescence polarization (PCFP) assay with proteinase K; conditions: 10 μM in pilot screen, n=1

PK activity (%) | SMILES
58.1 (10 μM in pilot screen) % | CC(=O)c1ccn(S(=O)(=O)c2ccccc2)c1 [Compound 17]
46.5 (10 μM in pilot screen) % | CC(=O)c1ccc(S(=O)(=O)c2ccccc2)cc1 [Compound 18]

same assay, conditions: Primary screen, n=1, 6.75 μM compound

PK activity (%) | SMILES
2.27 (Primary screen) % | Cc1cc(=O)oc2cc(O)ccc12 [Compound 19]
2.58 (Primary screen) % | O=c1ccc2ccccc2o1 [Compound 21]

same assay, conditions: from dose response curves measured during the screening process

EC50 [µM] | SMILES
4.92 | CC(C=NNc1ccc(S(N)(=O)=O)cc1[N+](=O)[O-])c1ccccc1 (stereo not shown) [Compound 6]
18.5 | CC(=O)c1ccn(S(=O)(=O)c2ccccc2)c1 [Compound 17]
18 | CC(=O)c1ccc(S(=O)(=O)c2ccccc2)cc1 [Compound 18]

same assay, conditions: secondary screen, mean ± sd, n=3; 6.75 μM compound; FP retention after 24 h at 22° C., normalized to high and low controls

PK activity (%) | SMILES
60.8 ± 2.7 | CC(C=NNc1ccc(S(N)(=O)=O)cc1[N+](=O)[O-])c1ccccc1 (stereo not shown) [Compound 6]
